# Source: patent US20180256596A1, “METHOD AND TOPICAL COMPOSITION FOR THE TREATMENT OF ROSACEA AND SKIN ERYTHEMA USING PYRITHIONE ZINC” (priority 2017, published 2018)
# Tested on: facial Rosacea
# Test: clinical type observations of topical application to facial skin
# Type: in vivo
# Conditions: pyrithione zinc aqueous solution of 1% concentration strength as sole active ingredient
# Experimental: In usage, the fluid composition of the invention is to be administered topically by a vehicle or carrier medium compatible with application to the skin. A useful regimen would be to a) mix 1 part of a 1% concentration strength pyrithione zinc aqueous solution with 3 parts of a cocoa butter emulsion moisturizer cream carrier; b) apply the fluid composition to the facial area of concern; c) leave the fluid composition for 2-3 minutes at the area of application; and d) rinse it off. […] For a more resistant condition of facial Rosacea, the regimen would be essentially the same—but with an increased concentration strength of pyrithione zinc aqueous solution, as by the addition of further pyrithione zinc (or zinc pyrithione) crystals to the aqueous formulation.
compound,measurement,value
"[O-]n1ccccc1=S.[O-]n1ccccc1=S.[Zn+2] [pyrithione zinc, Bis [1-hydroxy-2(1H)-pyridinethionato-O,S] (T-4) zinc]","redness, flushing and inflammation associated with facial Rosacea and skin erythema","significantly reducing the redness, flushing and inflammation"
